Measurements: patent US8748417B2, “Amino-pyrrolidine-azetidine diamides as monoacylglycerol lipase inhibitors” (Janssen Pharmaceutica, NV, priority 2010, dated 2014)

What was measured:
[1] = target: T1, purified wild type MGL (wt-MGLL 6H-11-313) (Homo sapiens, UniProt Q99685); test: MGL enzyme activity assay (4MU-B cleavage), wild type MGL; type: biochemical; conditions: wild type MGL 5 nM, 4MU-B 10 μM, 37° C.; read-out: MGL wild type inh IC50
T1 construct: purified wild type MGL (wt-MGLL 6H-11-313)
T1 sequence (Q99685 1-303): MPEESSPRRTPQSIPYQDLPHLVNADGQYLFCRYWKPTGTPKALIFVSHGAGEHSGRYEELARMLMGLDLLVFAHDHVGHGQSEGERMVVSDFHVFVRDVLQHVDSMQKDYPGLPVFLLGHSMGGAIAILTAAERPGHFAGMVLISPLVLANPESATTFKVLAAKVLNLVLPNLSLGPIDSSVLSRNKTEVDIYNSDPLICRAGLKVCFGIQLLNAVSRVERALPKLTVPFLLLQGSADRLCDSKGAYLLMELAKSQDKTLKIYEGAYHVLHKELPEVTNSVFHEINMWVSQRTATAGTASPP
How it was run: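 Enzyme in 20 mM PIPES pH 7.0, 150 mM NaCl, 0.001% Tween 20 with 4MU-B at 10 μM final and MGL at 5 nM final; compounds 17 to 0.0003 μM final, enzyme added last. Fluorescence (ex 335/em 440 nm) followed at 37° C for 5 min; IC50 from fit of fractional activity versus inhibitor concentration.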

[2] = system: MGL (rat brain homogenate); test: 2-AG accumulation assay in rat brain homogenate; type: biochemical; conditions: compound 1 μM, percent of vehicle 2-AG accumulation
How it was run: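 Rat brain homogenate was incubated with compound for 15 min at 37° C., after which CaCl2 was added to a final concentration of 10 mM and incubation continued for 15 min at 37° C. in 5 mL total. Reactions were stopped with 6 mL of 2:1 chloroform/methanol, and 2-AG accumulated in the organic phase was quantified by HPLC/MS.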

Structure (SMILES)	IC50 [1]	Rat Brain 2AG % VehCntrl (%) @1 μM [2]
O=C(c1cc2cc(-c3cccc(C(F)(F)F)c3)ccc2s1)N1CC(N[C@H]2CCN(C(=O)c3nccs3)C2)C1 [Cpd 132, (3S)-1-(1,3-Thiazol-2-ylcarbonyl)-N-[1-({5-[3-(trifluoromethyl)phenyl]-1-benzothiophen-2-yl}carbonyl)azetidin-3-yl]pyrrolidin-3-amine]	< 5 nM	1233%
O=C(c1ccc(Cc2cccc(C(F)(F)F)c2)cc1)N1CC(N[C@H]2CCN(C(=O)c3ccccc3)C2)C1 [Cpd 126, (3S)-1-(Phenylcarbonyl)-N-[1-({4-[3-(trifluoromethyl)benzyl]phenyl}carbonyl)azetidin-3-yl]pyrrolidin-3-amine]	< 5 nM	715%
Cc1c(C(=O)N2CC(N[C@H]3CCN(C(=O)c4cscn4)C3)C2)sc2ccc(-c3ccccc3)cc12 [Cpd 123, (3S)-N-{1-[(3-Methyl-5-phenyl-1-benzothiophen-2-yl)carbonyl]azetidin-3-yl}-1-(1,3-thiazol-4-ylcarbonyl)pyrrolidin-3-amine]	< 5 nM	661%
O=C(c1cscn1)N1CC[C@H](NC2CN(C(=O)c3sc4cc(Br)ccc4c3Cl)C2)C1 [Cpd 141, (3S)-N-{1-[(6-Bromo-3-chloro-1-benzothiophen-2-yl)carbonyl]azetidin-3-yl}-1-(1,3-thiazol-4-ylcarbonyl)pyrrolidin-3-amine]	19 nM	388%
O=C(c1cscn1)N1CC[C@H](NC2CN(C(=O)c3cc4ccc(-c5cccc(C(F)(F)F)c5)cc4s3)C2)C1 [Cpd 100, (3S)-1-(1,3-Thiazol-4-ylcarbonyl)-N-[1-({6-[3-(trifluoromethyl)phenyl]-1-benzothiophen-2-yl}carbonyl)azetidin-3-yl]pyrrolidin-3-amine]	< 5 nM	546%
O=C(c1ccc2c(ccn2-c2ncccn2)c1)N1CC(N[C@H]2CCN(C(=O)c3nccs3)C2)C1 [Cpd 119, (3S)-N-{1-[(1-Pyrimidin-2-yl-1H-indol-5-yl)carbonyl]azetidin-3-yl}-1-(1,3-thiazol-2-ylcarbonyl)pyrrolidin-3-amine]	48.8 nM	255%
Cc1cc(-c2cccc(C(F)(F)F)c2)ccc1C(=O)N1CC(N[C@H]2CCN(C(=O)c3nccs3)C2)C1 [Cpd 117, (3S)-N-(1-{[3-Methyl-3′-(trifluoromethyl)biphenyl-4-yl]carbonyl}azetidin-3-yl)-1-(1,3-thiazol-2-ylcarbonyl)pyrrolidin-3-amine]	< 5 nM	400%
O=C(c1nccs1)N1CC[C@H](NC2CN(C(=O)c3sc4cc(Br)ccc4c3Cl)C2)C1 [Cpd 140, (3S)-N-{1-[(6-Bromo-3-chloro-1-benzothiophen-2-yl)carbonyl]azetidin-3-yl}-1-(1,3-thiazol-2-ylcarbonyl)pyrrolidin-3-amine]	12.4 nM	742%
Cc1c(C(=O)N2CC(N[C@H]3CCN(C(=O)c4nccs4)C3)C2)sc2ccc(Cl)cc12 [Cpd 84, (3S)-N-{1-[(5-Chloro-3-methyl-1-benzothiophen-2-yl)carbonyl]azetidin-3-yl}-1-(1,3-thiazol-2-ylcarbonyl)pyrrolidin-3-amine]	< 5 nM	433%
O=C(c1ccc(Cc2ccc(C(F)(F)F)cc2)cc1)N1CC(N[C@H]2CCN(C(=O)c3ccccc3)C2)C1 [Cpd 77, (S)-(3-((1-Benzoylpyrrolidin-3-yl)amino)azetidin-1-yl)(4-(4-(trifluoromethyl)benzyl)phenyl)methanone]	< 5 nM	506%

Now from value to molecule, other results behind:

IC50 [1]	Structure (SMILES)	Rat Brain 2AG % VehCntrl (%) @1 μM [2]
13.9 nM	Cn1cc(-c2ccccc2)c2ccc(C(=O)N3CC(N[C@H]4CCN(C(=O)c5nccs5)C4)C3)cc21 [Cpd 169, (3S)-N-{1-[(1-Methyl-3-phenyl-1H-indol-6-yl)carbonyl]azetidin-3-yl}-1-(1,3-thiazol-2-ylcarbonyl)pyrrolidin-3-amine]	482%
< 5 nM	O=C(c1cscn1)N1CC[C@H](NC2CN(C(=O)c3sc4cc(-c5ccc(C(F)(F)F)cc5)ccc4c3Cl)C2)C1 [Cpd 151, (3S)-N-[1-({3-Chloro-6-[4-(trifluoromethyl)phenyl]-1-benzothiophen-2-yl}carbonyl)azetidin-3-yl]-1-(1,3-thiazol-4-ylcarbonyl)pyrrolidin-3-amine]	495%
< 5 nM	Cn1cc(-c2ccc(F)cc2)c2ccc(C(=O)N3CC(N[C@H]4CCN(C(=O)c5nccs5)C4)C3)cc21 [Cpd 192, (3S)-N-(1-{[3-(4-Fluorophenyl)-1-methyl-1H-indol-6-yl]carbonyl}azetidin-3-yl)-1-(1,3-thiazol-2-ylcarbonyl)pyrrolidin-3-amine]	374%
55 nM	O=C(c1ccc2c(ccn2-c2ccc(F)cc2)c1)N1CC(N[C@H]2CCN(C(=O)c3ccccc3)C2)C1 [Cpd 161, (3S)-N-(1-{[1-(4-Fluorophenyl)-1H-indol-5-yl]carbonyl}azetidin-3-yl)-1-(phenylcarbonyl)pyrrolidin-3-amine]	485%
13.4 nM	O=C(c1nccs1)N1CC[C@H](NC2CN(C(=O)c3sc4cc(-c5ccccc5)ccc4c3C(F)(F)F)C2)C1 [Cpd 208, (3S)-N-(1-{[6-Phenyl-3-(trifluoromethyl)-1-benzothiophen-2-yl]carbonyl}azetidin-3-yl)-1-(1,3-thiazol-2-ylcarbonyl)pyrrolidin-3-amine]	359%
< 5 nM	O=C(c1ccc2c(-c3ccccc3)c[nH]c2c1)N1CC(N[C@H]2CCN(C(=O)c3nccs3)C2)C1 [Cpd 187, (3S)-N-{1-[(3-Phenyl-1H-indol-6-yl)carbonyl]azetidin-3-yl}-1-(1,3-thiazol-2-ylcarbonyl)pyrrolidin-3-amine]	242%
44.5 nM	Cn1cc(-c2ccc(C(F)(F)F)cc2)c2ccc(C(=O)N3CC(N[C@H]4CCN(C(=O)c5cscn5)C4)C3)cc21 [Cpd 165, (3S)-N-[1-({1-Methyl-3-[4-(trifluoromethyl)phenyl]-1H-indol-6-yl}carbonyl)azetidin-3-yl]-1-(1,3-thiazol-4-ylcarbonyl)pyrrolidin-3-amine]	228%
< 5 nM	O=C(c1cscn1)N1CC[C@H](NC2CN(C(=O)c3sc4cc(-c5ccccc5)ccc4c3Cl)C2)C1 [Cpd 147, (3S)-N-{1-[(3-Chloro-6-phenyl-1-benzothiophen-2-yl)carbonyl]azetidin-3-yl}-1-(1,3-thiazol-4-ylcarbonyl)pyrrolidin-3-amine]	506%
< 5 nM	O=C(c1ccccc1)N1CC[C@H](NC2CN(C(=O)c3sc4ccc(-c5ccccc5)cc4c3F)C2)C1 [Cpd 173, (3S)-N-{1-[(3-Fluoro-5-phenyl-1-benzothiophen-2-yl)carbonyl]azetidin-3-yl}-1-(phenylcarbonyl)pyrrolidin-3-amine]	628%
10 nM	O=C(c1nccs1)N1CC[C@H](NC2CN(C(=O)c3sc4ccc(-c5ccc(C(F)(F)F)cc5)cc4c3F)C2)C1 [Cpd 174, (3S)-N-[1-({3-Fluoro-5-[4-(trifluoromethyl)phenyl]-1-benzothiophen-2-yl}carbonyl)azetidin-3-yl]-1-(1,3-thiazol-2-ylcarbonyl)pyrrolidin-3-amine]	791%
16 nM	O=C(c1nccs1)N1CC[C@H](NC2CN(C(=O)c3sc4cc(-c5ccc(C(F)(F)F)cc5)ccc4c3F)C2)C1 [Cpd 177, (3S)-N-[1-({3-Fluoro-6-[4-(trifluoromethyl)phenyl]-1-benzothiophen-2-yl}carbonyl)azetidin-3-yl]-1-(1,3-thiazol-2-ylcarbonyl)pyrrolidin-3-amine]	766%
13.4 nM	O=C(c1ccc2c(ccn2-c2ccc(C(F)(F)F)cc2)c1)N1CC(N[C@H]2CCN(C(=O)c3ccccc3)C2)C1 [Cpd 154, (3S)-1-(Phenylcarbonyl)-N-[1-({1-[4-(trifluoromethyl)phenyl]-1H-indol-5-yl}carbonyl)azetidin-3-yl]pyrrolidin-3-amine]	582%
46.5 nM	O=C(c1ccc2c(c1)c(F)cn2-c1ccc(F)cc1)N1CC(N[C@H]2CCN(C(=O)c3cscn3)C2)C1 [Cpd 143, (3S)-N-(1-{[3-Fluoro-1-(4-fluorophenyl)-1H-indol-5-yl]carbonyl}azetidin-3-yl)-1-(1,3-thiazol-4-ylcarbonyl)pyrrolidin-3-amine]	244%
39.6 nM	O=C(c1cscn1)N1CC[C@H](NC2CN(C(=O)c3sc4ccc(Cl)cc4c3C(F)(F)F)C2)C1 [Cpd 181, (3S)-N-(1-{[5-Chloro-3-(trifluoromethyl)-1-benzothiophen-2-yl]carbonyl}azetidin-3-yl)-1-(1,3-thiazol-4-ylcarbonyl)pyrrolidin-3-amine]	241%
